Assay results reported in patent US20170042809A1, “STABLE LIPOSOMAL FORMULATIONS OF CARBONIC ANHYDRASE INHIBITORS FOR OCULAR DRUG DELIVERY” (Peregrine Ophthalmic PTE LTD., priority 2015, published 2017).
Structures can show the parent of a compound that is named as a salt.

Key:
[1] = In-vitro drug release by dialysis against PBS pH 7.4, HPLC; assay type: physicochemical; settings: within 48 hours, dialysis (MWCO 8-10 kDal) against PBS pH 7.4
Protocol: Drug release studies were performed by dialysing a dorzolamide HCl solution and LipoDH prepared as described above in EXAMPLE 2 and EXAMPLE 3, respectively, against PBS at a pH of 7.4 and measuring the amount of dorzolamide released by HPLC.
Briefly, 1 mL of dorzolamide HCl solution and 1 ml LipoDH were each loaded into a dialysis tube (molecular weight cut-off of 8-10 kDal) before placing the tube into 40 mL of PBS in a 50 mL tube. The PBS in the tubes was sampled at 1, 4, 7, 24, 48, 72 and 96 hours at which time the dorzolamide concentration was measured by HPLC.
The cumulative drug release percentage vs release time for both dorzolamide HCl solution (unencapsulated) and LipoDH (encapsulated) was calculated and plotted. […] Without a doubt, encapsulation of dorzolamide in a liposome results in a formulation capable of sustained drug delivery.

[2] = Stability of LipoDH and dorzolamide HCl aqueous solution on storage at 5° C.; assay type: physicochemical
Protocol: The LipoDH formulation was described above in EXAMPLE 2. A dorzolamide HCl aqueous solution was prepared by dissolving 200 mg dorzolamide HCl in 20 mL of PBS. The dorzolamide content of both formulations was analyzed after storing them at 5° C. for 7 and 14 days. The temperature was monitored and recorded continuously to ensure stable temperature conditions.

CCN[C@H]1C[C@H](C)S(=O)(=O)c2sc(S(N)(=O)=O)cc21 [dorzolamide HCl]
cumulative drug release percentage [1]: 80% | degradation percentage ([2]; at 7 days, storage at 5° C.): 57.9% | degradation percentage, Start of Stability Test ([2]; start of stability test): 0.0% | drug content, Start of Stability Test ([2]; start of stability test): 9.5 mg/mL | degradation percentage, 7 Days Incubation ([2]; stored at 5° C. for 7 days): 57.9% | drug content, 7 Days Incubation ([2]; stored at 5° C. for 7 days): 4.0 mg/mL | degradation percentage, 14 Days Incubation ([2]; stored at 5° C. for 14 days): 58.9% | drug content, 14 Days Incubation ([2]; stored at 5° C. for 14 days): 3.9 mg/mL
